{
  "source": "patent US7605153B2",
  "about": "“Use of paullone derivatives for the production of medicaments for the treatment of mucoviscidosis and diseases related to protein addressing errors in cells” (Centre National de la Recherche Scientifique - CNRS, priority 2005, dated 2009)",
  "key": {"delF508-CFTR [1]": {"biological_target": "T1, delF508-CFTR (Homo sapiens, UniProt P13569, DEL508-508)", "T1 construct": "CF15 human lung epithelial cells homozygous for the delF508 deletion; endogenous in cells; host or cells: CF15 human nasal/lung epithelial cells, homozygous delF508", "T1 sequence (P13569 with tags, fused parts or gaps DEL508-508)": "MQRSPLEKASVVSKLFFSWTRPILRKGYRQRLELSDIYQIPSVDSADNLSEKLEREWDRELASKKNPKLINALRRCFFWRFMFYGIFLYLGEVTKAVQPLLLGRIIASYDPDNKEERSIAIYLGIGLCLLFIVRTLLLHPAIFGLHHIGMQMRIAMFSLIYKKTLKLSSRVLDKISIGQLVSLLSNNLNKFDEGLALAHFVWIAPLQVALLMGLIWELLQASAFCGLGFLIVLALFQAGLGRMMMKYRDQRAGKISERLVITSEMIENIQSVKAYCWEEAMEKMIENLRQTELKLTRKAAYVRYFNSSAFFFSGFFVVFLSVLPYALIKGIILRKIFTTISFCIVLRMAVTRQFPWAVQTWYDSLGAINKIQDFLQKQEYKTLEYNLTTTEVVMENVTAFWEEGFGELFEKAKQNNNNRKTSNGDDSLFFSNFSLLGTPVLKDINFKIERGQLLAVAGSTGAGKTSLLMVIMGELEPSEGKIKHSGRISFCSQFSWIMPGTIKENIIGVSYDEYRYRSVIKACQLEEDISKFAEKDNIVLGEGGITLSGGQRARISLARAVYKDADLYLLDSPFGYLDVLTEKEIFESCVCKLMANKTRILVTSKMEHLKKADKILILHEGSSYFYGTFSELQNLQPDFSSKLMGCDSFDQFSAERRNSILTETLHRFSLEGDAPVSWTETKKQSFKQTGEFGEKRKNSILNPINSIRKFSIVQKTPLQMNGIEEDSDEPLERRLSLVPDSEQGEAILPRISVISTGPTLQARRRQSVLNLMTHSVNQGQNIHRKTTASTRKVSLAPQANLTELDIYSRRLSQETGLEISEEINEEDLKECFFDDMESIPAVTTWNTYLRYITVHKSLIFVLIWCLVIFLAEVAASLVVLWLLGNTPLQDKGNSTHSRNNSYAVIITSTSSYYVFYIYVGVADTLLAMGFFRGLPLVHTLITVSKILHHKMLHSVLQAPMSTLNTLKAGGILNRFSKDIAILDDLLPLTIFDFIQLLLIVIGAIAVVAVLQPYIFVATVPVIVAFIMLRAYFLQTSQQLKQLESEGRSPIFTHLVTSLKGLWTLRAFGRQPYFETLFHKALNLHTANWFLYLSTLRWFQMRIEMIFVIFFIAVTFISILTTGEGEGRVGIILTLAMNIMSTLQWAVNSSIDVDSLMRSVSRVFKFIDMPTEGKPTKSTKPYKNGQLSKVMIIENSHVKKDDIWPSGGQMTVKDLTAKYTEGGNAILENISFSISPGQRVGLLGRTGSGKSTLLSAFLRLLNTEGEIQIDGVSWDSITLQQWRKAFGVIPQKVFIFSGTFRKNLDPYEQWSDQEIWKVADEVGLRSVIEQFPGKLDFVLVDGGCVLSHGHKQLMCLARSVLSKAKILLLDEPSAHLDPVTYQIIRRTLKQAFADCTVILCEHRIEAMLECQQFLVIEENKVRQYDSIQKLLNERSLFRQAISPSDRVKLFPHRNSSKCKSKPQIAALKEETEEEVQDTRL", "experiment": "iodide efflux, delF508 addressing in CF15 cells", "format": "cell-based", "conditions": "for effect of known CFTR inhibitors on delF508 activity after treatment with kenpaullone: CF15 cells treated with kenpaullone, iodide transport; for delF508-CFTR activity (iodide efflux) normalised to MPB-91 standard treatment: CF15 cells treated 2 hrs at 37° C., stimulation 10 μM Forskoline+30 μM Genisteine, 250 μM MPB-91 for 2 hrs = 100%, alsterpaullone 100 μM", "protocol": "CF15 cells: CF15 cells are human nasal epithelial cells expressing the AF508-CFTR gene.\nThe cells are incubated in an appropriate medium in 24-well plates. […] The iodide equilibrates on either side of the cell membrane. The following steps are performed using a robot (MultiPROBE, Packard): the loading medium is rinsed with efflux medium in order to eliminate extracellular radioactivity. The supernatant is collected every minute into haemolysis tubes and the medium is replaced by an equivalent volume of medium (500 μl). No drug is added to the samples taken in the first three minutes in order to obtain a stable baseline characterising the passive exit of I ions. The 7 samples that follow are obtained in the presence of the molecule to be tested. At the end of the experiment, the cells are lysed by adding 500 μl of 0.1 N NaOH/0.1% SDS (30 min), which allows determining the level of radioactivity remaining inside the cell. The radioactivity present in the haemolysis tubes is measured as counts per minute (cpm) using a gamma counter (Cobra II, Packard). […] This iodide flux is represented by a graph. In order to quantify the iodide efflux due to administration of the tested molecule, the relative flux is calculated as follows in order to ignore the basal flux: Relative velocity (min^−1)=Rpeak−Rbasal. […] The results are presented in the form of a mean+/−SEM. Student's statistical test is used to compare the effect of the various drugs with the controls (the corresponding P<0.01 values are considered to be statistically significant).\nThe study of delF508-CFTR protein addressing is performed in the laboratory by using a combination of pharmacological, cellular imagery, biochemical and electrophysiological tests on CF15 human lung epithelial cells homozygous for the delF508 deletion. For each experiment, the addition of a cocktail (10 μM Forskoline+30 μM Genisteine) allows activation of the CFTR when the latter is localised at the membrane. This allows an iodide efflux to be observed if delF508 addressing has been restored."}, "CHO-WT cells": {"system": "CHO-WT cells", "experiment": "MTT cytotoxicity test", "format": "cell-based, Chinese Hamster", "conditions": "CHO-WT cells incubated 2 hrs, different concentrations", "protocol": "CHO-WT cells: CHO (Chinese Hamster Ovary) cells are fibroblasts transfected with the wild-type CFTR gene (CFTR-WT). These cells will therefore overexpress the CFTR protein.\nThe MTT cytotoxicity test is a […] test based on the capacity of mitochondrial dehydrogenases to metabolise MTT (a yellow tetrazolium salt) into formazan (purple). The absorbance is proportional to the concentration of converted dye and can then be measured by spectrophotometry. The cells are incubated in 96-well microplates in the presence of the agent to be tested for 2 hours. Three controls are performed: 100% live cells: cells without any agent; 0% live cells: cells left under normal atmosphere; blank: medium without cells. The cells are rinsed with RPMI medium without phenol red in order for the colour of the medium not to interfere with absorbance measurements. They are then incubated for 4 hours with 100 μl RPMI solution supplemented with MTT (0.5 mg/ml). The medium is eliminated, 100 μl DMSO is added which permit to dissolve the converted dye (formazan). The absorbance is measured by spectrophotometry at 570 nm (purple); 630 nm (background noise). In order to ignore the background noise, the following calculation is performed: DOreelle=DO570nm−DO630nm. The results are then normalised with respect to the controls (100% and 0% live cells) and presented in the form of a mean+/−SEM. […]"}, "wild-type CFTR [2]": {"biological_target": "T2, wild-type CFTR (Homo sapiens, UniProt P13569)", "T2 construct": "Calu-3 cells are human lung epithelial cells expressing the wild-type CFTR gene; endogenous in cells; host or cells: Calu-3 human lung epithelial cells", "T2 sequence (P13569 whole entry)": "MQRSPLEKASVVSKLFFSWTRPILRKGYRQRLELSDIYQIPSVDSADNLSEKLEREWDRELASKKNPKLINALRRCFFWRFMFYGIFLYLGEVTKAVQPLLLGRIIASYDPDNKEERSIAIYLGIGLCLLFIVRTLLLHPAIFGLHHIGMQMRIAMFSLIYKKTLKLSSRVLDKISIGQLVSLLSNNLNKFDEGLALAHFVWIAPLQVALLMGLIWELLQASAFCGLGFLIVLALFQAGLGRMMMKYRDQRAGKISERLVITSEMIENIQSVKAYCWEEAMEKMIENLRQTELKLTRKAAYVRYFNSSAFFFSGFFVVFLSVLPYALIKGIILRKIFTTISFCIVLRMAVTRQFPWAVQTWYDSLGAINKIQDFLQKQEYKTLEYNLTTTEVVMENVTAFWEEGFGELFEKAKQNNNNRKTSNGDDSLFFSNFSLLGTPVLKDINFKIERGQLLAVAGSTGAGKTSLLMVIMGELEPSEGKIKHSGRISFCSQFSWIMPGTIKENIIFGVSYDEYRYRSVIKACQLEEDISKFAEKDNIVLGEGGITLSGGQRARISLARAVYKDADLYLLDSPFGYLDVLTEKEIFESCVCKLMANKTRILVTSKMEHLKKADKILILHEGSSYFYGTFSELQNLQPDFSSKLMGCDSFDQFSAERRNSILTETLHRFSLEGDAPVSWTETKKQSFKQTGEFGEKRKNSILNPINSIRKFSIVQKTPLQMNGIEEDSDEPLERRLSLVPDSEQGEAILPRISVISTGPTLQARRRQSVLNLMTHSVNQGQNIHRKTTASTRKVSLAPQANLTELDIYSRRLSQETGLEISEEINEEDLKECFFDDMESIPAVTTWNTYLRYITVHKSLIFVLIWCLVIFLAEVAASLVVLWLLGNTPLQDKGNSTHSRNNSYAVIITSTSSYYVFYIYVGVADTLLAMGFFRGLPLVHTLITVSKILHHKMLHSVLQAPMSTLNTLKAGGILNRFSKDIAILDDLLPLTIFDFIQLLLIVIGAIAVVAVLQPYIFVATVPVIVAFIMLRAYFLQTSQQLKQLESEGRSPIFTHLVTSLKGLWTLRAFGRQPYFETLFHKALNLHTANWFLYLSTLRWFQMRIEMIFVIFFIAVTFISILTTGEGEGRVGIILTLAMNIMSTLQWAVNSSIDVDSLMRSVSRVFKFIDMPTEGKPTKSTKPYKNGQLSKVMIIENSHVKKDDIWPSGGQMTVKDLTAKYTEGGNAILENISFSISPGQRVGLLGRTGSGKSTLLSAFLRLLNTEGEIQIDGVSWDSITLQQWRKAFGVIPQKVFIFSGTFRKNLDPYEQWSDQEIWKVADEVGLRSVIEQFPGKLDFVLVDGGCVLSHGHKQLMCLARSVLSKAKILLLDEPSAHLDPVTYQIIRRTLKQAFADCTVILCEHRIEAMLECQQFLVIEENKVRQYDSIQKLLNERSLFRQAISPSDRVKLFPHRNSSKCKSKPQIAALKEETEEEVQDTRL", "experiment": "iodide efflux, CFTR addressing in Calu-3 cells after 2 hrs treatment", "format": "cell-based", "conditions": "Calu-3 cells treated for 2 hrs, 100 μM", "protocol": "(§1) Calu-3 cells: Calu-3 cells are human lung epithelial cells expressing the wild-type CFTR gene.\n(§2) Measurements of chloride ion transport in the cells were performed using the radioactive iodide efflux technique (Becq et al., Journal of Biological Chemistry 274, 27415-27425 (1999); Dormer et al., Journal of Cell Science 114, 4073-4081 (2001). The ^125I tracer is incorporated into the intracellular milieu. Then, the quantity of radiotracer coming out of the cell is then measured after adding various pharmacological agents. Iodide is used as a tracer of chloride ion transport. ^125I has the advantage of being short-lived compared to other markers such as ^35Cl (respective half-lives: […] and 300,000 years).\n(§3) The cells are incubated in an appropriate medium in 24-well plates. The cells are rinsed twice with efflux medium (136.6 mM NaCl, 5.4 mM KCl, 0.3 mM KH2PO4, 0.3 mM NaH2PO4, 4.2 mM NaHCO3, 1.3 mM CaCl2, 0.5 mM MgCl2, 0.4 mM MgSO4, 10 mM HEPES, 5.6 mM D-glucose) in order to eliminate dead cells, which release radioactivity in an anarchic fashion. […] The following steps are performed using a robot (MultiPROBE, Packard): the loading medium is rinsed with efflux medium in order to eliminate extracellular radioactivity. […] The radioactivity present in the haemolysis tubes is measured as counts per minute (cpm) using a gamma counter (Cobra II, Packard). […]"}, "[3]": {"conditions": "in vivo; cited from earlier work"}, "delF508-CFTR [4]": {"biological_target": "T1, delF508-CFTR", "experiment": "immunolabelling, cellular localisation of delF508-CFTR in CF15 cells", "format": "cell-based", "conditions": "100 μM", "protocol": "Immunolabelling allows visualising the cellular localisation of the CFTR protein by an anti-CFTR primary antibody (Ab), and a secondary Cy3-labelled fluorescent antibody directed against the primary antibody.\nThe cells are first seeded on cover slips in an appropriate culture medium. The cells are then washed 3 times with TBS (157 mM NaCl, […] Tris base, pH 7.4) of 5 min. each time and then fixed by adding 3% TBS-paraformaldehyde for 20 min. After 3 washes with TBS (5 min), the cells are incubated with 0.1% TBS-triton (10 min) to make holes in the cell membrane, and then washed 3 times with TBS before being exposed to 0.5% TBS-BSA-0.05% saponin for 1 hr. The cells are then incubated with the primary anti-CFTR C terminal antibody (2 μg/ml) for 1 hr. The cells are washed 3 times (5 min. each) with TBS-BSA-saponin before incubating with the GAM-cy3 secondary antibody ( 1/400) for 1 hr. After 2 TBS washes (5 min. each), the nuclei are labelled by incubating with Topro3 ( 1/1,000) for 5 min. Finally, the cover slips can be mounted on a glass slide after 3 final TBS washes of 5 min. each. The slides are observed with a confocal microscope (Bio-Rad) using laser excitation at appropriate wave-lengths. In order to differentiate Cy3 from Topro3 labelling, the colour of the Topor3 fluorescence has been changed to blue (colour of the nuclei). […]"}, "GSK-3": {"system": "GSK-3", "conditions": "cited from earlier work"}, "wild-type CFTR [5]": {"biological_target": "T2, wild-type CFTR", "experiment": "iodide efflux, CFTR activity in Calu-3 cells (test as activator)", "format": "cell-based", "conditions": "n=8, controls forskoline 5 μM, MPB-91 250 μM", "protocol": "as §1, §2, §3"}},
  "data": [
    {"smiles": "O=S(=O)(O)c1cc(N=C=S)ccc1C=Cc1ccc(N=C=S)cc1S(=O)(=O)O", "note": "[DIDS]", "values": [
      {"measurement": "effect of known CFTR inhibitors on delF508 activity after treatment with kenpaullone", "setting": "delF508-CFTR [1]", "result": "insensitive"}
    ]},
    {"smiles": "O=C(O)c1ccccc1Nc1ccccc1", "note": "[DPC]", "values": [
      {"measurement": "effect of known CFTR inhibitors on delF508 activity after treatment with kenpaullone", "setting": "delF508-CFTR [1]", "result": "blocked"}
    ]},
    {"smiles": "O=C1Cc2c([nH]c3ccc([N+](=O)[O-])cc23)-c2ccccc2N1", "note": "[alsterpaullone]", "values": [
      {"measurement": "delF508-CFTR activity (iodide efflux) normalised to MPB-91 standard treatment", "setting": "delF508-CFTR [1]", "result": "no effect"}
    ]},
    {"smiles": "COc1ccc(Cl)cc1C(=O)NCCc1ccc(S(=O)(=O)NC(=O)NC2CCCCC2)cc1", "note": "[glibenclamide]", "values": [
      {"measurement": "effect of known CFTR inhibitors on delF508 activity after treatment with kenpaullone", "setting": "delF508-CFTR [1]", "result": "blocked"}
    ]},
    {"smiles": "O=C1Cc2c([nH]c3ccc(Br)cc23)-c2ccccc2N1", "note": "[kenpaullone]", "values": [
      {"measurement": "cell viability (MTT)", "setting": "CHO-WT cells", "result": "viable at all concentrations"},
      {"measurement": "CFTR activity after treatment (wild-type CFTR addressing)", "setting": "wild-type CFTR [2]", "result": "not significantly different from the controls"},
      {"measurement": "toxicity in animals", "setting": "[3]", "result": "only very slight toxicity"},
      {"measurement": "localisation of delF508 protein", "setting": "delF508-CFTR [4]", "result": "redirect the delF508 protein towards the membrane"},
      {"measurement": "EC50", "setting": "delF508-CFTR [1]", "result": "22 ± 1.7", "unit": "µM"},
      {"measurement": "delF508-CFTR activity (iodide efflux) normalised to MPB-91 standard treatment", "setting": "delF508-CFTR [1]", "result": "higher than that obtained with MPB-91"},
      {"measurement": "selectivity for GSK-3 inhibition", "setting": "GSK-3", "result": "highly selective"},
      {"measurement": "activation of wild-type CFTR or other anionic transporter", "setting": "wild-type CFTR [5]", "result": "not found to be an activator"}
    ]}
  ]
}
